Data set [1] in a line: Concentration of metabolites in rat brain tissue after intravenous injection of I1s. Type of data set: in vivo. The conditions noted are these: for Passage through the blood-brain barrier: detected in rat brain tissue after iv I1s; for concentration at 6 h: male, Sprague-Dawley, rat, brain, iv, 25 mg/kg, read-out: Concentration in brain tissue (single rats). The protocol: (§1) 12 clean SD male rats, provided by Qinglongshan Animal Breeding Farm in Jiangning District, Nanjing. The production license number is SCXK (Jiangsu) 2017-0001. The body weight of the rats ranges from 180 to 220 g. The rats were used after being raised in the laboratory of an experimental animal center for 2 days after purchase, fasted for 12 hours before administration and 6 hours after administration, and were allowed to freely drink during the test period.
(§2) The concentration of the original drugs and metabolites in the rat blood were determined by LC-MS/MS, and WinNonlin pharmacokinetics professional software and a statistical moment method were used for calculation to obtain the corresponding pharmacokinetic parameters.

For data set [2], the system named is AA induced platelet aggregation. The experiment in a line: In vitro anti-platelet aggregation, AA induced (turbidimetry, PRP). The data set is classed as cell-based, rabbits. The protocol:
(§3) The animals were used for experiments after 1 week.
(§4) The common carotid artery was separated, and a polyethylene tube was inserted into the common carotid artery to collect blood. […] The upper beige suspension was pipetted to obtain the platelet-rich plasma (PRP). […] The PRP was adjusted with the PPP to make the platelet count at 1×10^8/mL.
(§5) 260 μL of platelet-rich plasma (PRP) was added into a turbidimetric tube. Then 10 μL of test compounds with different concentrations, positive control drugs or normal saline were separately added, and the plasma was incubated at 37° C. for 5 min. Then 30 μL of inducers were added in sequence. The final concentration of an inducer ADP is 10 μM, and the final concentration of an inducer AA is 1 mM. […] Inhibition rate of platelet aggregation (IRPA)=(platelet aggregation rate of the control group−platelet aggregation rate of the experimental group)/platelet aggregation rate of the control group×100%.

Data set [3] is described as follows: Pharmacokinetics of metabolites in rat plasma after intravenous injection of I1s. Type of data set: in vivo, SD male rats. The following applies: metabolite in rat plasma after I1s 25 mg/kg tail vein, rats 1-3. On the procedure: as §1, §2
Data set [4] deals with ADP induced platelet aggregation. The experiment in a line: In vitro anti-platelet aggregation, ADP induced (turbidimetry, PRP). The data set is classed as cell-based, rabbits. The protocol:
as §3, §4, §5

In data set [5] the test system is bleeding time in mice after tail cutting. The experiment in a line: Effect on bleeding time in mice after tail cutting. The conditions noted are these: 5 mg/kg orally once a day for 14 days, 1 h after last dose. The data set is classed as in vivo, Kunming mice. On the procedure:
SPF Kunming mice, weighing 18-22 g, purchased from Beijing Vital River Laboratory Animal Technology Co., Ltd., having a certificate number of SCXK (Beijing) 2010-0002, raised in an SPF animal room with indoor temperature controlled at 23±2° C., and allowed to freely eat and drink. The day and night time was 12 h/12 h.
The administration dose level of the positive drug groups and the test drug groups was 5 mg/kg, and the same amount of normal saline was given to the negative control group. All mice were administered for 14 consecutive days orally once a day. One hour after the last dose, the mice were anesthetized with 1-2% isoflurane, and the tails were cut for 5 mm. The tips of the tails were absorbed dry with filter paper every 30 seconds until the bleeding stopped naturally. Bleeding time is defined as the interval between the start and stop of bleeding.

In data set [6] the test system is arteriovenous bypass thrombosis in rats. In words: Effect on arteriovenous bypass thrombosis in rats. Type of data set: in vivo, SD rats. The conditions noted are these: 10 mg/kg/day tail vein 7 days; for inhibition at 10 mg/kg/day: Rattus norvegicus, 168 h, vs model group. The protocol: Male SD rats, weighing 250-280 g, purchased from Beijing Vital River Laboratory Animal Technology Co., Ltd., raised in an SPF breeding environment with indoor temperature controlled at 23±2° C., and allowed to freely eat and drink. The total number of the animals is 64.
Model group: injected with the same volume of normal saline (containing 1% DMSO) through the tail vein, and administered continuously for 7 days. The test was started 2 h after the last dose (n=8).
The dose of all drugs was 10 mg/kg/day. The drugs were formulated into normal saline solutions containing 1% DMSO, and injected through the tail vein for 7 consecutive days. The test was started 2 hours after the last dose (n=8).
The rats were intraperitoneally injected with a 3% pentobarbital sodium solution (30 mg/kg). After anesthesia, the rats were immobilized in the supine position, and a median cervical incision was made to separate the right common carotid artery and left external jugular vein. A 6 cm long suture was put in the middle of a polyethylene tube (the suture needs to be weighed before being put in the tube), and the polyethylene tube was filled with heparin saline (50 U/mL). The polyethylene tube was inserted into the separated blood vessels to make the artery and vein form a loop. After 15 min of circulation of the blood flow, the suture was taken out, and the suture with thrombus was collected and weighed immediately. Then, after the suture was dried at room temperature for 24 h, the dry weight was determined. The total weight minus the weight of the suture was the wet weight of the thrombus, and the dry weight minus the weight of the suture was the dry weight of the thrombus.

The nature of data set [7]: Concentration of metabolites in rat brain tissue after intravenous injection of I1s. The following applies: male, Sprague-Dawley, rat, brain, iv, 25 mg/kg; for concentration at 0.5 h: 0.5 h after intravenous injection of I1s; for concentration at 1 h: 1 h after intravenous injection of I1s. The data set is classed as in vivo.
The conditions of data set [8]: literature value; cited from earlier work.
The test system of another data set is MCAO rats. The experiment in a line: Cerebral infarction, cerebral edema and nerve function of rats with focal cerebral ischemia (MCAO). The following applies: 5 mg/kg. Type of data set: in vivo, SD rats. On the procedure:
The total number of the animals was 88.
Sham operation group: equal volume of normal saline (containing 1% DMSO) (iv. 3 days), TTC, cerebral edema and neurological function score (n=8); […]
The middle cerebral arteries of the rats were blocked by a suture-occluded method, and reperfused after 2 h. […] All drugs were formulated into normal saline solutions containing 1% DMSO for administration, and the duration of administration was controlled at approximately 1 min. […] 2 h after the last administration, the neurological defect scores were firstly obtained, and then the rats of each group were sacrificed. The whole brains were taken out and weighed (wet weight), TTC stained, and dried to determine the effects of the compounds on cerebral infarction and cerebral edema.
2 h after the last administration, the neurological defects of the animals were graded and scored by the Longa's method.
After the neurobehavioral examination was completed, four coronal incisions were made on the whole brains of the rats on the optic chiasma and 2 mm anteroposterior positions of the optic chiasma. After the whole brains were cut into five slices, the brain slices were quickly placed in 5 ml of phosphate buffer solution containing 2% TTC, and incubated at 37° C. in the dark. In the incubation process, the brain slices were turned once every 5 min. After 10 min of incubation, the brain slices were taken out and pictures were taken with a digital camera (Olympus C-4000, Japan).
The calculation formula of brain water content is as follows: Water content of brain tissue (%)=(wet weight of brain tissue−dry weight of brain tissue)/wet weight of brain tissue×100%; Cerebral edema rate (%)=water content of brain tissue of each group (%)−water content of brain tissue of sham operation group (%)/water content of brain tissue of sham operation group (%)×100%; Inhibition rate of cerebral edema (%)=(rate of cerebral edema of model group (%)−rate of cerebral edema of administration group (%))/rate of cerebral edema of model group (%)×100%.

Setting [9] is: 6 h after intravenous injection of I1s.
Where [10] appears, read: read-out: IC50 AA (1 mM), rabbit PRP, inducer AA 1 mM, 37° C.
Where [11] appears, read: male, Sprague-Dawley, rat, plasma, iv, 25 mg/kg.
Where [12] appears, read: male, Sprague-Dawley, rat, plasma, iv, 25 mg/kg, read-out: AUC(0-t).
Where [13] appears, read: male, Sprague-Dawley, rat, plasma, iv, 25 mg/kg, read-out: Cmax.
Setting [14] is: Oryctolagus cuniculus, Platelet, read-out: IC50 ADP (10 μM), rabbit PRP, inducer ADP 10 μM, 37° C.
[15] abbreviates: read-out: Concentration in brain tissue (single rats).
[16] abbreviates: read-out: Concentration in brain tissue, Mean.
Where [17] appears, read: iv 2 h after the beginning of reperfusion.
The mark [18] stands for this setting: iv at the beginning of reperfusion.

“And” between values parts separate entries of the source, which are not always exact repeats. Equal entries are not always repeated. Structures can show the parent of a compound that is named as a salt. Where two headings read alike, the source gives them in different places.

In the case of `CCCCC(OC(=O)CC)c1ccccc1C(=O)O` (racemic) (as salt: salt) [I2, L-Arginine (R/S)-2-(1-Propionyloxy-n-Pentyl) Benzoate], the melting point fell in the range of 169 to 171 °C.

Consider `CCCC[C@H](OC(C)=O)c1ccccc1C(=O)O` [(S)-APB, (S)-2-(1-acetoxy-n-pentyl)benzoic acid], for which the “Passage through the blood-brain barrier” value in [1] is reported as “could all pass through the blood-brain barrier”. In data set [1] (setting [9]), the concentration at 6 h came to 26.1 ng/g. For the same molecule, in data set [2] (setting [10]), the half-inhibitory concentration (IC50) came to 430 ± 50 µM. Also, the half-life in [3] (male, Sprague-Dawley, rat, plasma, intravenous, 25 mg/kg) was approximately 3 h. Besides, in [3] (setting [11]), the area under the curve AUC(0-inf) came to 31800 ng·h/mL, the clearance is 13.1 mL/min/kg and the half-life was 2.71 h. In addition, the AUC(0-t) in data set [3] (setting [12]) was found to be 31700 ng·h/mL. Also, in data set [3] (setting [13]), the Cmax worked out at 51400 ng/mL. In [3] (listed as M2), the “AUC(0-t)” value is 28614.9 ng·h/mL and 28503.7 ng·h/mL; the “AUC(0-∞)” value is 28748.5 ng·h/mL and 28703.5 ng·h/mL; the Cl is 14.494 mL/min/kg and 14.516 mL/min/kg; the Cmax was 53513.2 ng/mL and 52069.2 ng/mL. The Vz in data set [3] (listed as M2) is 4.1842 L/kg and 4.8584 L/kg. Besides, the IC50 in data set [4] (setting [14]) amounted to 790 ± 80 µM.

Molecule `CC(=O)Oc1ccccc1C(=O)O` [Aspirin] gave a Bleeding time in data set [5] of 22.52 ± 1.31 min. Also, the IC50 in [2] (Oryctolagus cuniculus, Platelet, read-out: IC50 AA (1 mM), rabbit PRP, inducer AA 1 mM, 37° C.) amounted to 160 ± 10 µM; in [4] (setting [14]), 780 ± 50 µM. Further, the “Dry weight of thrombus” value in data set [6] (2 h after last dose) was found to be 6.06 ± 0.46. Also, in data set [6] (2 h after last dose), the “Wet weight of thrombus” value is reported as 21.46 ± 1.76. In addition, the inhibition at 10 mg/kg/day worked out at 39.7% in data set [6] (read-out: Inhibition rate (dry weight of thrombus)) and 40.7% in data set [6] (read-out: Inhibition rate (wet weight of thrombus)).

As to `CCCC[C@H](O)c1ccccc1C(=O)O` [M3, (S)-2-(1-hydroxy-n-pentyl)benzoic acid], in data set [1] (0.5 h after intravenous injection of I1s), the “Concentration in brain tissue (single rats)” value (shortened to “Concentration in brain tissue”) is 118.09 ng/g and 137.01 ng/g. Also, the “Concentration in brain tissue” value in data set [1] (1 h after intravenous injection of I1s) is 39.47 ng/g and 32.78 ng/g. Besides, in data set [1] (setting [9]), the “Concentration in brain tissue” value was 31.33 ng/g and 32.14 ng/g; the concentration at 6 h was found to be 31.1 ng/g. The “Passage through the blood-brain barrier” value in data set [1] is recorded as “could all pass through the blood-brain barrier”. In [7] (setting [15]), the concentration at 0.5 h stood at 76.8 ng/g and the concentration at 1 h was found to be 35.5 ng/g. In data set [7] (setting [16]), the concentration at 0.5 h amounted to 111 ng/g and the concentration at 1 h was 35.9 ng/g. The concentration at 6 h in data set [7] (setting [9]) was determined as 31.5 ng/g. In addition, in [3] (setting [11]), the AUC(0-inf) stood at 624 ng·h/mL and the clearance was 668 mL/min/kg. In addition, the AUC(0-t) in data set [3] (setting [12]) is 518 ng·h/mL. In [3] (setting [13]), the maximum concentration (Cmax) stood at 737 ng/mL. For the same molecule, in data set [3], the “AUC(0-t)” value is 577.8 ng·h/mL and 492.6 ng·h/mL; the “AUC(0-∞)” value was 673.9 ng·h/mL and 858.7 ng·h/mL; the Cl is 618.2922 mL/min/kg and 485.2238 mL/min/kg; the Cmax was 876.5 ng/mL and 569.2 ng/mL.

On to `CCCCC1OC(=O)c2ccccc21` (racemic) [(R/S)-NBP, racemic (R/S)-3-N-butyl-1(3H)-isobenzofuranone], for which the half-life in [8] was 0.733 h. In the data set with MCAO rats (setting [17]), the Cerebral edema is 6.72 ± 4.05%, the Infarct volume came out at 36.50 ± 7.58%, the “Inhibition rate of cerebral edema” value was found to be 28.80% and the “Inhibition rate of infarct volume” value worked out at 26.43%. In the data set on MCAO rats (setting [18]), the Cerebral edema stood at 5.80 ± 1.83%, the Infarct volume turned out to be 28.55 ± 8.25%, the “Inhibition rate of cerebral edema” value stood at 40.21% and the “Inhibition rate of infarct volume” value was 41.96%. Besides, in data set [2] (setting [10]), the IC50 was 600 ± 70 µM. The IC50 in data set [4] (read-out: IC50 ADP (10 μM), rabbit PRP, inducer ADP 10 μM, 37° C.) came to 1360 ± 130 µM.

Molecule `CCCCC(OC(=O)CCC)c1ccccc1C(=O)O` (racemic) (as salt: salt) [I3, L-Arginine (R/S)-2-(1-N-Butyryloxy-n-Pentyl) Benzoate] showed a melting point of 152 to 153 °C.

The molecule `COC(=O)[C@H](c1ccccc1Cl)N1CCc2sccc2C1` [Clopidogrel] had a Bleeding time in data set [5] of 25.28 ± 0.48 min.

Values taken from US11814352B2, “Salts formed by 2-(1-acyloxy-n-pentyl) benzoic acid and basic amino acid or aminoguanidine, and preparation method and application thereof” (JIANGSU KANION PHARMACEUTICAL CO., LTD., priority 2018, dated 2023).
